{
  "source": "paper PMC3583800",
  "about": "“Identification of active Plasmodium falciparum calpain to establish screening system for Pf-calpain-based drug development” (Malaria Journal, 2013)",
  "molecular_target": "T1, rPfcal-IIa (Pf-calpain catalytic subdomain IIa) (Plasmodium falciparum, UniProt E5LAD0)",
  "T1 construct": "also baculovirus/High Five for the mutation study; monomeric proposed",
  "T1 sequence (E5LAD0 822-1216)": "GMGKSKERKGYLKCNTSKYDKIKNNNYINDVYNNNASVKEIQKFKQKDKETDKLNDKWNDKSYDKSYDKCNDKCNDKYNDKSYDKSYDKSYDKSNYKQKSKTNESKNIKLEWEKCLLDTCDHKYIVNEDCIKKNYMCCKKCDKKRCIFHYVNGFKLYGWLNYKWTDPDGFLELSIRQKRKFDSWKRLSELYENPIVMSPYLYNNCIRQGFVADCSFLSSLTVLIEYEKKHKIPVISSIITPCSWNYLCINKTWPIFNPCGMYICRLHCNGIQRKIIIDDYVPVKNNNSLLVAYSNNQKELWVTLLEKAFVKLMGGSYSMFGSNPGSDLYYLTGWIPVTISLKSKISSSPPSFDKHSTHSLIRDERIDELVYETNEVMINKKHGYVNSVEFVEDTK",
  "test": "fluorogenic Suc-LLVY-AMC assay and gelatin zymography",
  "format": "biochemical",
  "details": "100 μM inhibitor pre-incubated 1 h at 37°C; 20 μM Suc-LLVY-AMC, 100 mM Tris-HCl pH 7.5, 1 mM DTT",
  "data": [
    {"compound": "CC(C)C[C@H](NC(=O)[C@@H]1O[C@H]1C(=O)O)C(=O)NCCCCNC(=N)N", "note": "[E-64]", "values": [
      {"measurement": "inhibition at 100 μM", "value": "enzymatic activity of rPfcal-IIa protein was significantly inhibited by ALLN and E-64"}
    ]}
  ]
}
